Results on 14 molecules are retold here after PubChem BioAssay (NCI).

Assay in all cases: NCI-60 cell line screen, 48 h
The subject of test [1] is SF-295 CNS.
Test [2] concerns A549 NSCLC.
Test [3] relates to 786-0 renal.
In test [4] the test system is MDA-N.
The test system of test [5] is HCT-116 colon.
Test [6] relates to NCI-H226 lung.
The subject of test [7] is HCT-15 colon.
Test [8] concerns CCRF-CEM leukemia.
Test [9] concerns OVCAR-5 ovarian.
The subject of test [10] is NCI-H23 lung.
In test [11] the test system is HOP-92 NSCLC.

Molecules are shown by their SMILES.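 Protocol summary: plate cells (96-well), add compound at 5 concentrations, incubate 48 h, interpolate endpoints linearly. At the TGI there is no net growth.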

Regarding `NC(Cc1ccc(S(=O)(=O)O)cc1)C(=O)NC(Cc1ccc(S(=O)(=O)O)cc1)C(=O)O` (centres undefined), the TGI in [1], in [2], in test [3], in test [4], in test [5] and in [6] was above 100 µM throughout. The TGI in [7], in test [8], in [9] and in test [10] was above 100 µM throughout.
On to `C[C@H](C/C=C/C(C)(C)O)[C@H]1CC[C@@]2(C)[C@@H]3CC[C@H]4C(C)(C)[C@@H](O)CC[C@@]45C[C@@]35CC[C@]12C`, for which the TGI in [1] was 30.2 µM; in [2], 31 µM; in test [3], 46.5 µM; in test [4] it was above 100 µM; in [5] it was 37.1 µM; in test [6], 38.5 µM. For the same molecule, the TGI in test [7] worked out at 83.1 µM; in test [9], 38.8 µM; in [11] it was 26.5 µM.
On to `CC(=O)N1CCn2c1nc1cc(Cl)ccc12`, for which the TGI in test [1], in [2], in test [3], in [4], in test [5] and in test [6] was above 100 µM each time. Also, the TGI in test [7] is above 100 µM; in [8] it was above 100 µM; in test [9], above 100 µM; in test [11] it was 81.4 µM.
Regarding `CC(=O)Oc1ccc(/C=C/C(=O)O[C@@H](C(=O)O)[C@@H](OC(=O)/C=C/c2ccc(OC(C)=O)c(OC(C)=O)c2)C(=O)O)cc1OC(C)=O`, the TGI in test [1], in test [2], in test [3], in test [4], in test [5] and in test [7] was above 100 µM in each case. Moreover, the TGI in [8], in [9], in test [10] and in [11] was above 100 µM throughout.
For the molecule `S=C(Nc1ccc2cn[nH]c2c1)Nc1ccc2cn[nH]c2c1`, the TGI in test [1], in test [2], in [3], in test [4], in [5] and in test [6] was above 100 µM in each case. For the same molecule, the TGI in test [7], in test [9], in test [10] and in test [11] was above 100 µM each time.
Consider `CC1=NC(=Cc2ccc([N+](=O)[O-])cc2)C(=O)N1n1c(-c2ccccc2)nc2ccccc2c1=O`, for which the TGI in [1], in test [2], in [3], in [4], in [5] and in test [6] was above 100 µM throughout. For the same molecule, the TGI in test [7] is above 100 µM; in [8], above 100 µM; in [10] it was 81.2 µM.
`CC(C)(C)OC(=O)NCCCCC(NC(=O)c1ccccc1)C(N)=O` (centres undefined): the TGI in test [1], in test [2], in [3], in test [4], in test [5] and in test [7] was above 100 µM throughout. The TGI in test [8], in test [9] and in test [10] was above 100 µM throughout.
Take `Cc1nc2c(=S)n(C)ncc2[nH]1`: the TGI in [1], in [2], in test [3], in test [4], in [5] and in test [6] was above 100 µM throughout. Besides, the TGI in [7], in [8], in [9] and in test [10] was above 100 µM throughout.
For the molecule `CCOC(=O)C1=COC(C)(CCc2ccccc2)CC1=O` (centres undefined), the TGI in test [1], in test [2], in test [3], in test [4], in test [5] and in [7] was above 100 µM throughout. Besides, the TGI in test [9] and in [10] was above 100 µM throughout.
For `N#C/C(=C/NC(=S)c1ccncc1)C(N)=O`, the TGI in test [1], in test [2], in [3], in [4], in test [5] and in [6] was above 100 µM in each case. Besides, the TGI in [7], in [9], in [10] and in test [11] was above 100 µM in each case.
Turning to `C=CCOCn1cc(C)c(=O)[nH]c1=O`, the TGI in test [1], in test [2], in test [3], in [4], in [5] and in test [6] was above 100 µM in each case. In addition, the TGI in [7], in test [8] and in test [10] was above 100 µM each time.
As for `COc1ccc(/C=C/C2=NN(c3cccc(S(=O)(=O)O)c3)C3(C2)SCC(=O)N3c2nc3ccccc3s2)cc1` (centres undefined), the TGI in test [2], in test [3], in test [4], in [5], in [6] and in test [7] was above 100 µM each time. In addition, the TGI in test [8] was 77.5 µM; in [9], above 100 µM; in test [10], above 100 µM; in [11], above 100 µM.
Turning to `CCN(CC)c1ccc2cc(C(=O)Nc3ccccn3)c(=N)oc2c1`, the TGI in test [2], in test [3], in test [4], in test [5], in test [6] and in test [7] was above 100 µM throughout. The TGI in test [8], in test [9], in [10] and in [11] was above 100 µM throughout.
On to `Cn1c(N/N=C/c2ccccc2)nc(-c2ccc([N+](=O)[O-])cc2)c(C#N)c1=O`, for which the TGI in [1], in test [2], in [3], in test [4], in [5] and in test [7] was above 100 µM in each case. The TGI is above 100 µM in [8], above 100 µM in test [9], above 100 µM in test [10] and 80.6 µM in [11].
